Measurements as given in patent publication US12263139B2, “Use of cannabidiol in the treatment of tuberous sclerosis complex” (Jazz Pharmaceuticals Research UK Limited, priority 2017, dated 2025).
pIC50: −log10 of the molar value.

Key:
[1] = system: Miapaca cells; assay: MTT cell viability assay in Miapaca; type: cell-based; settings: Homo sapiens, MIA PaCa-2, 72 h, FIG. 6B, read-out: concentration at which 50% growth inhibition was reached
Protocol: MIAPACA is a Homo sapiens pancreas carcinoma. This is a hypotriploid human cell line.
Cell viability was analyzed by the MTT [3-(4,5-dimethylthiazol-2-yl)-2,5-diphenyl tetrazolium bromide] assay. Pancreatic cancer cells were seeded onto each well of a 96-well plate. After 72 h of treatment with CBD, MTT solution 5 mg/ml in PBS was added to each well. The plates were then incubated at 37° C. for an additional 4 h to allow MTT to form formazan crystals by reacting with metabolically active cells. The formazan crystals were solubilized in a 1N isopropanol/HCl 10% solution at 37° C., on a shaking table for 20 min. The absorbance values of the solution in each well were measured at 570 nm using a microplate reader. Cell viability was determined by the formula: cell viability (%)=(absorbance of the treated wells−absorbance of the blank control wells)/(absorbance of the negative control wells−absorbance of the blank control wells)×100%. All MTT experiments were performed in triplicate and repeated at least three times.

[2] = system: pS6 positive cells; assay: Number of pS6 positive cells in zebrafish model of TSC; type: in vivo; settings: for effect on average number of pS6 positive cells: Danieau's incubated
Source text: A zebrafish model of TSC with a tsc2 gene deletion was used. This model has been previously published and validated (Kim et al. 2011). By mating the gene deletion animals with wild-type tsc2+/+ animals, heterozygote (tsc2+/−) zebrafish were also obtained and tested in this example.
For both pS6 and TUNEL staining, non-consecutive sections were imaged using a Zeiss AxioImager microscope. Exposure time was kept constant during image acquisition and determined by the observation of a slide where primary antibody or enzyme solution was omitted. Pictures were taken with a 20× objective, using the AxioVision software, and coloured using Fiji ImageJ. All counting and measuring of cells was done in the original black and white pictures.
Statistical analysis was performed in SPSS (IBM SPSS Statistics 22), except for the chi-square test, which was done using GraphPad Prism 5. Normality and sphericity were tested using the Kolmogorov-Smirnov and Mauchly's tests, respectively. Repeated measures two-way ANOVA tests were used to analyse the locomotor assay data and cell number, while a three-way ANOVA test was used to analyse cell size. Touch response (TR) between genotypes and treatments was analysed by chi-square test. Tests were followed by Tukey or Bonferroni post-hoc tests.
To explore mTOR pathway activation in the different genotypes and treatments, immunohistochemistry was performed using a pS6 (Ser235/236) antibody.
To better understand the apparent differences between groups, pS6 positive cells were counted for each genotype and treatment. A significant main effect of genotype was found, with tsc2−/− zebrafish sections showing more pS6 positive cells in the brain than tsc2+/+ and tsc2+/−(+173.3%) (FIG. 4A).

[3] = system: AML 621-101 cells; assay: Tumour spheroid growth (soft agar) assay in AML 621-101 cells; type: cell-based; settings: 10 μM CBD
Protocol: (i) Angiomyolipomas (AML) cells derived from a Tuberous Sclerosis Complex patient (621-101 cell-line), with a known loss of function of TSC2. […] Zeocin™ was purchased from LifeTechnologies (cat no: R25001) and was used to originally generate the stable cell line (by Prof. Lisa Henske) over two weeks of Zeocin™ selection and then for continued maintenance of the cells in tissue culture (at 100 μg/ml).
(§1) The stock concentration of CBD was made to 20 mM in dimethyl sulfoxide (DMSO). CBD was added to culture media to final concentrations of either 5 μM or 10 μM, as indicated). The final concentration of the DMSO in the cell culture medium was at a maximum level of 0.05% (v/v).
Two-layered soft agar assays were carried out in 6-well plates. All cell lines were plated in complete DMEM media in 0.35% (v/v) agar at (3*10^5) over a 0.6% (v/v) agar layer. The agar was then overlaid with complete DMEM media and spheroids were grown for 14 days at 37° C. in 5% CO2. Media were changed twice a week and new drug was added to media. Pictures were taken using an inverted AMG EVOS microscope equipped with an Olympus camera. Volume of tumour spheroids was measured using ImageJ software.

[4] = system: Tsc2−/− MEFs; assay: Matrigel cell invasion assay in Tsc2−/− MEFs; type: cell-based, mouse
Protocol: (ii) Tsc2−/− p53−/− and Tsc2+/+p53−/− mouse embryonic fibroblast (MEF) cell lines (now referred to as Tsc2−/− and Tsc2+/+, respectively).
Tsc2−/− and Tsc2+/+ cell lines were cultured and maintained in DMEM supplemented with 10% (v/v) FBS and 1% (v/v) penicillin-streptomycin in a humidified incubator (5% CO2 at 37° C.). The AML −/− cell lines were cultured and maintained in DMEM supplemented with 15% (v/v) FBS and 1% (v/v) penicillin-streptomycin in a humidified incubator (5% CO2 at 37° C.). For hypoxia, cells were put into a Binder CB150 hypoxic chamber set at 1% 02 for the indicated time points
as §1
Transwell permeable supports with 6.5 mm diameter inserts, 8.0 μm pore size, and a polycarbonate membrane were used to perform migration assays. Cells were grown in a 75-cm2 flask with standard medium (10% (v/v) FBS) until confluent. […] Cells were counted using a haemocytometer. […] The percentage of adherent cells was then determined by fixing the cells with methanol and acetone (1:1) for 20 minutes at 20° C. […] Crystal Violet stained cells were eluted with 1% (w/v) SDS and the absorbance was read at 550 nm on a Genova MK3 Lifescience. […]

## C=C(C)[C@@H]1CCC(C)=C[C@H]1c1c(O)cc(CCCCC)cc1O [CBD, Cannabidiol]
[1]
  pIC50: 4.82
[2]; main effect of treatment, compared to DMSO group, FIG. 4B
  change in average number of pS6 positive cells: −77.1%
[2]; main effect of treatment, compared to Danieau's group, FIG. 4B
  change in average number of pS6 positive cells: −63.2%
[2]; tsc2+/+ zebrafish
  effect on average number of pS6 positive cells: no significant effect
[2]; tsc2+/− zebrafish
  effect on average number of pS6 positive cells: no significant effect
[2]; tsc2−/− zebrafish, for the DMSO group, FIG. 4C
  change in average number of pS6 positive cells: −58.9%
[2]; tsc2−/− zebrafish, for the Danieau's group, FIG. 4C
  change in average number of pS6 positive cells: −55.4%
[3]
  tumour spheroid formation: sufficient to block tumour spheroid formation
[4]; 5 μM CBD
  cell invasion: restoring invasion to the level of the Tsc2+/+ control cells
[4]; 10 μM CBD
  cell invasion: more robust effect
